Results on 1 compound are retold here after patent US20100113602A1, “USE OF HISTONE DEACETYLASE INHIBITORS FOR THE TREATMENT OF CENTRAL NERVOUS SYSTEM METASTASES” (The United States of America,as represented by the …, priority 2007, published 2010).

Data set [1] concerns 231-BR cells. The data set is described as follows: 48-well Boyden chamber chemotaxis (motility) assay. The class given is cell-based, human. Conditions: 24 hours drug treatment, 4 hours migration, SAHA 5 μM, depsipeptide 10 ng/mL, VPA 10 mM, TSA 100 ng/mL, ± standard deviation. The protocol: 231-BR Cells are used as described in Example 2. A 48-well Boyden chemotaxis chamber is used. Polycarbonate PVP-free Nucleopore filters (8 μm pore size) are coated with 0.01% collagen (BD Bioscience). […] Drug concentrations used are as described in Example 2. 231-BR cells, after 24 hours of vorinostat, other drug treatment, or control are added to the top chamber in DMEM with 1 mg/ml BSA at a concentration of 2×10^6 cells/ml. Chambers are incubated for 4 hours in a 37° C. incubator with 5% CO2. After chambers are disassembled, filters are fixed and stained with reagents from a Diff-Quik® Kit (Fischer Scientific). Cells that migrate through the Boyden chamber are counted using a light microscope. Representative areas are counted to determine the number of cells that have migrated for each well. Data in Table 5 are shown as mean number of cells±standard deviation that migrate per well. Analysis of variance (ANOVA) is used to assess in vitro functions of vehicle treated versus vorinostat treated cells. P values can be two-tailed. Tests can be performed using GraphPad InStat version 3.0 software.

For data set [2], the system named is acetyl Histone H3, acetyl histone H4, p21. Put plainly: Western blot of 231-BR cell lysates after HDI treatment. The class given is cell-based, human. To be noted: 231-BR cells; depsipeptide 10 ng/mL or SAHA 5 μM; 0, 8, 24, 48 hours. Here is the method: All cell lines are deemed free of mycoplasma and human pathogens and test negative in mouse antibody production (MAP) tests. […] Drug solution is added once at the beginning and left on the cells for the indicated duration (0, 8, 24, and 48 hours). Controls are performed in the same way with the same amount of vehicle solution for each drug, but without the drug. The vehicle can be DMSO. Cells are lysed according to standard procedures and Western blotting is performed. Primary antibodies specific to the targeted proteins are used including antibodies specific to acetyl Histone H3, acetyl histone H4, p21, and α-tubulin. Horseradish peroxidase-conjugated secondary antibodies purchased from Santa Cruz Biotechnology (Santa Cruz, Calif.) are used at dilutions of 1:5000. Proteins are visualized using enhanced chemilluminescence (Cell Signaling) and autoradiography. […] As histones H3 and H4 become hyperacetylated, protein levels of the cyclin-dependent kinase inhibitor p21 increase. Those changes indicate HDAC inhibition.

The conditions of data set [3]: mouse, in vivo. Here is the method: All animal experiments are conducted under an approved Animal Use Agreement with the NCI. Under isoflurane anesthesia, 20 female Balb/c nude mice (Charles River Laboratories, Frederick, Md.) 5-7 weeks old are inoculated with 500,000 (Experiment 1) or 100,000 (Experiment 2) MDA-MB-231-BR cells in 0.1 mL PBS in the left ventricle of the heart. Mice are monitored daily for signs of ill health. Three days after tumor cell inoculation mice are randomized to treatment groups and treatment is started. […]. After 21 days of treatment, mice are euthanized under CO2 anesthesia and brains are excised for imaging. EGFP is detected in whole brains by the Maestro 420 In Vivo Spectral Imaging System (Cambridge Research and Instrumentation, Woburn, Mass.), using software (e.g., Nuance Technology, Burlington, Mass.) to distinguish or unmix images of fluorescence from multiple sources. […] Ten serial sections every 300 microns through the brain are analyzed using a 5× objective on a Zeiss microscope, containing an ocular grid with squares of 0.8 mm^2.
. […] “Mean Micromets” in Tables 6 and 7 refer to the mean number of metastases counted in 10 step sections from one hemisphere of the brain. “Mean Large Mets” in Tables 6 and 7 refer to the size of metastases determined by a 16 mm^2 ocular grid. […]

Data set [4] deals with MDA-MB-231BR cells brain metastases. The data set is described as follows: Brain metastasis model, timing of SAHA administration (Example 6). The class given is in vivo, nude mice. To be noted: for Large Metastases, Mean number per section: vehicle 7.65; for Micrometastases, Mean number per section: vehicle 170. The protocol:
As described in Example 5, 175,000 MDA-MB-231BR cells in 0.1 mL PBS are injected into the left cardiac ventricle of the heart of nude mice. […] On day [X], mice are euthanized under CO2 anesthesia and brains are excised for imaging as described in Example 5.
Micro- and large (>50 microns^2) metastases are tabulated. The data set forth in Table 8 are representative of two experiments.

Setting [5] is: 150 mg/kg SAHA IP once daily starting on day 3 post-injection until day 21.
The mark [6] stands for this setting: 150 mg/kg SAHA IP once daily starting on day 7 post-injection until day 21.
The mark [7] stands for this setting: 150 mg/kg SAHA IP once daily starting on day 14 post-injection until day 21.

As to `O=C(CCCCCCC(=O)Nc1ccccc1)NO` [SAHA, N-Hydroxy-N′-phenyloctanediamide], the “Motility Data, mean number of cells that migrate per well, 0.5% FCS” value in data set [1] (0.5% FCS chemoattractant) was found to be 756 ± 56. In data set [1] (Control (no FCS chemoattractant)), the “Motility Data, mean number of cells that migrate per well, Control” value is recorded as 67 ± 6. For the same compound, the “acetylation of histones H3 and H4 (Western blot)” value in data set [2] was “hyperacetylated”. Besides, the “toxicity of the higher dosage” value in data set [3] is on record as “toxicity”. Also, the “Large Metastases, Mean number per section” value was 2.89 in data set [4] (setting [5]), 4.94 in data set [4] (setting [6]) and 5.96 in data set [4] (setting [7]). For the same compound, the “Micrometastases, Mean number per section” value in data set [4] (setting [5]) is 122; in data set [4] (setting [6]), 151; in data set [4] (setting [7]) it was 171. The “reduction in large metastases” value is 57% in data set [4] (150 mg/kg SAHA starting on day 3 post-injection, vs vehicle, P<0.001) and 22% in data set [4] (150 mg/kg SAHA starting on day 14 post-injection, vs vehicle, not statistically significant). This compound registered a reduction in micrometastases in data set [4] (150 mg/kg SAHA starting on day 3 post-injection, vs vehicle, P=0.017) of 28%. For the same compound, in data set [4] (150 mg/kg SAHA starting on day 7 post-injection, vs vehicle, P=0.008), the “reduction (large metastases)” value is recorded as 34%.
